In patent publication US20230203485A1, “METHODS FOR MODULATING MHC-I EXPRESSION AND IMMUNOTHERAPY USES THEREOF” (Dana-Farber Cancer Institute, Inc., priority 2020, published 2023):

Test system: class I antigen presentation gene expression in MCC cell lines
Assay: RNA-seq / DESeq2 differential expression of MCC cell lines at baseline and after IFN-γ stimulation
Type: cell-based, human
Method: FIG. 2A comprises RNA-seq heatmaps of class I antigen presentation gene expression in MCC lines and controls.
FIG. 2B is a volcano plot of differentially expressed genes (genes below FDR cutoff 0.01 are shown in yellow) between baseline and IFN-γ-treated MCC cell lines. Differential expression analysis was performed using DESeq2, and negative LFC indicates increased expression in +IFN-γ samples. IFN genes are highlighted in red.
RNA samples were first assessed for quality using the Agilent Bioanalyzer (DV200 metric). One hundred ng of RNA were used as the input for first strand cDNA synthesis using Superscript III reverse transcriptase and Illumina's TruSeq RNA Access Sample Prep Kit. Synthesis of the second strand of cDNA was followed by indexed adapter ligation with UMI (unique molecular index) adaptors. Subsequent PCR amplification enriched for adapted fragments. Amplified libraries were quantified, normalized, pooled, and hybridized with exome targeting oligos. Following hybridization, bead clean-up, elution and PCR was performed to prepare library pools for sequencing on Illumina flowcell lanes. Transcriptomes were sequenced to a coverage of at least 50 million reads in pairs.
Raw fastq files for fibroblast and keratinocyte control lines were downloaded from SRA using R Bioconductor package SRAdb (Mayakonda et al. (2018) supra; Zhu et al. (2013) BMC Bioinformatics 14 (1): 1-4) using accession codes SRP126422 (4 replicates from control samples ‘NN’) and SRP131347 (6 replicates with condition: control and genotype: control). These fastq files, along with those for the mkl1 and waga cell lines, were aligned using STAR version 2.7.3a (Dobin et al. (2013) Bioinformatics 29 (1): 15-21), using index genome reference file downloaded from ftp.ebi.ac.uk/pub/databases/gencode/Gencode_human/release_19/GRCh37.p13.genome.fa.gz, transcript annotation file downloaded from data.broadinstitute.org/snowman/hg19/star/gencode.v19.annotation.gtf, and with the following options: --twopassMode Basic, --outSAMstrandField intronMotif, --alignIntronMax 1000000, --alignMatesGapMax 1000000, --sjdbScore 2, --outSAMtype BAM Unsorted, --outSAMattributes NH HI NM MD AS XS, --outFilterType BySJout, --outSAMunmapped Within, --genomeLoad NoSharedMemory, --outFilterScoreMinOverLread 0, --outFilterMatchNminOverLread 0, --outFilterMismatchNmax 999, and outFilterMultimapNmax 20. Duplicates were marked with picard MarkDuplicates version 2.22.0-SNAPSHOT.
RNA-sequencing bam files for MCC tumor and cell line samples were downloaded from the Broad Genomics Firecloud/Terra platform using the Google Cloud Storage command line tool gsutil version 4.5 (github.com/GoogleCloudPlatform/gsutil/).
Gene counts were obtained from bam files using featureCounts version 2.0.0 (doi.org/10.1093/bioinformatics/btt656). Very lowly expressed genes with average count across samples less than 1 were excluded from analysis. Between-sample distance metrics were computed using the Euclidean distance on the vectors of variance-stabilized counts obtained from the vst function in the DESeq2 R Bioconductor package ([…]; Love et al. (2014) Genome Biology 15 (12): 550).
Differential expression analysis was carried out between (1) viral positive and viral negative samples (adjusting for cell line or tumor as a covariate), (2) cell line and tumor samples (adjusting for viral status as a covariate), and (3) IFNγ plus and minus samples (adjusting for viral status as a covariate) using the negative binomial GLM Wald test of DESeq2, where significance was assessed using the p-values adjusted for multiple comparisons under default settings. To account for potential global gene expression differences among sample groups, RUVg (Risso et al. (2014) […] 32 (9): 896-902) was used to estimate latent factors of unwanted variation from the list of housekeeping genes downloaded from www.tau.ac.il/˜elieis/HKG/HK_genes.txt. […]

[1] = 11 MCC cell lines, baseline vs IFNγ, negative LFC = upregulation in IFNγ-treated

“IFN-y: type II interferon, recombinant human, used to treat MCC cells” was tested, and the “class I genes mRNA expression (RNA-seq)” value (10 of 11 MCC lines, baseline vs treated) was “markedly upregulated”, the “log2FoldChange ACSL5 (ENSG00000197142.6)” value [1] was −5.831 and the “log2FoldChange ADAR (ENSG00000160710.11)” value [1] was −1.068. For the same substance, the “log2FoldChange ADGRF3 (ENSG00000173567.10)” value [1] was −0.853, the “log2FoldChange ATP2C1 (ENSG00000017260.15)” value [1] was −0.5502 and the “log2FoldChange ATP10D (ENSG00000145246.9)” value [1] was −2.417. For the same substance, the “log2FoldChange AZIN2 (ENSG00000142920.12)” value [1] was −1.224, the “log2FoldChange BATF2 (ENSG00000168062.5)” value [1] was −7.362 and the “log2FoldChange BCL2L14 (ENSG00000121380.8)” value [1] was −5.59. The “log2FoldChange BCL6 (ENSG00000113916.13)” value [1] was −2.953, the “log2FoldChange BTN2A1 (ENSG00000112763.11)” value [1] was −0.9873 and the “log2FoldChange BTN2A3P (ENSG00000124549.10)” value [1] was −4.459. For the same substance, the “log2FoldChange BTN3A1 (ENSG00000026950.12)” value [1] was −6.582, the “log2FoldChange BTN3A2 (ENSG00000186470.9)” value [1] was −6.089 and the “log2FoldChange BTN3A3 (ENSG00000111801.11)” value [1] was −6.93. The “log2FoldChange C1QB (ENSG00000173369.11)” value [1] was −3.233, the “log2FoldChange C2 (ENSG00000166278.10)” value [1] was −4.096 and the “log2FoldChange C4A (ENSG00000244731.3)” value [1] was −1.245. The “log2FoldChange C4B (ENSG00000224389.4)” value [1] was −2.248, the “log2FoldChange C5orf56 (ENSG00000197536.6)” value [1] was −3.71 and the “log2FoldChange CARD16 (ENSG00000204397.3)” value [1] was −6.289. For the same substance, the “log2FoldChange CASC6 (ENSG00000224944.1)” value [1] was −3.263, the “log2FoldChange CASP1 (ENSG00000137752.18)” value [1] was −7.907 and the “log2FoldChange CASP4 (ENSG00000196954.8)” value [1] was −4.024. The “log2FoldChange CASP7 (ENSG00000165806.15)” value [1] was −1.833, the “log2FoldChange CCDC73 (ENSG00000186714.8)” value [1] was −2.84 and the “log2FoldChange CCND1 (ENSG00000110092.3)” value [1] was −5.698. For the same substance, the “log2FoldChange CD74 (ENSG00000019582.10)” value [1] was −8.494, the “log2FoldChange CD274 (ENSG00000120217.9)” value [1] was −6.119 and the “log2FoldChange CDC20 (ENSG00000117399.9)” value [1] was 0.6763. The “log2FoldChange CFB (ENSG00000243649.4)” value [1] was −7.333, the “log2FoldChange CIR1 (ENSG00000138433.11)” value [1] was −0.5344 and the “log2FoldChange CLVS1 (ENSG00000177182.6)” value [1] was −3.934. For the same substance, the “log2FoldChange CMPK2 (ENSG00000134326.7)” value [1] was −2.83, the “log2FoldChange CSF1 (ENSG00000184371.9)” value [1] was −3.741 and the “log2FoldChange CTSO (ENSG00000256043.2)” value [1] was −3.005. For the same substance, the “log2FoldChange CXCL9 (ENSG00000138755.5)” value [1] was −11.74, the “log2FoldChange CXCL10 (ENSG00000169245.4)” value [1] was −5.89 and the “log2FoldChange CXCL11 (ENSG00000169248.8)” value [1] was −4.672. The “log2FoldChange DDO (ENSG00000203797.5)” value [1] was −4.692, the “log2FoldChange DDX58 (ENSG00000107201.5)” value [1] was −2.939 and the “log2FoldChange DDX60 (ENSG00000137628.12)” value [1] was −7.298. For the same substance, the “log2FoldChange DDX60L (ENSG00000181381.9)” value [1] was −3.461, the “log2FoldChange DNPEP (ENSG00000123992.14)” value [1] was −1.703 and the “log2FoldChange DTX3L (ENSG00000163840.5)” value [1] was −4.603. For the same substance, the “log2FoldChange EIF2AK2 (ENSG00000055332.12)” value [1] was −1.367, the “log2FoldChange ENSG00000121848.9 (symbol NA)” value [1] was −0.3499 and the “log2FoldChange ENSG00000197146.2 (symbol NA)” value [1] was −1.6. The “log2FoldChange ENSG00000202533.1 (symbol NA)” value [1] was −3.684, the “log2FoldChange ENSG00000213500.3 (symbol NA)” value [1] was −2.007 and the “log2FoldChange ENSG00000224666.2 (symbol NA)” value [1] was −5.276. For the same substance, the “log2FoldChange ENSG00000224789.1 (symbol NA)” value [1] was −2.338, the “log2FoldChange ENSG00000225931.3 (symbol NA)” value [1] was −4.205 and the “log2FoldChange ENSG00000229023.1 (symbol NA)” value [1] was −4.669. For the same substance, the “log2FoldChange ENSG00000229677.1 (symbol NA)” value [1] was −2.162, the “log2FoldChange ENSG00000230812.1 (symbol NA)” value [1] was −5.173 and the “log2FoldChange ENSG00000231280.1 (symbol NA)” value [1] was −5.122. The “log2FoldChange ENSG00000232709.1 (symbol NA)” value [1] was −3.863, the “log2FoldChange ENSG00000233892.1 (symbol NA)” value [1] was −1.246 and the “log2FoldChange ENSG00000234290.2 (symbol NA)” value [1] was −2.28. For the same substance, the “log2FoldChange ENSG00000238000.1 (symbol NA)” value [1] was −1.895, the “log2FoldChange ENSG00000238160.1 (symbol NA)” value [1] was −3.274 and the “log2FoldChange ENSG00000238991.1 (symbol NA)” value [1] was −3.733. The “log2FoldChange ENSG00000245025.2 (symbol NA)” value [1] was −3.838, the “log2FoldChange ENSG00000248693.1 (symbol NA)” value [1] was −3.648 and the “log2FoldChange ENSG00000252206.1 (symbol NA)” value [1] was −2.445. For the same substance, the “log2FoldChange ENSG00000260336.1 (symbol NA)” value [1] was −2.736, the “log2FoldChange ENSG00000261618.1 (symbol NA)” value [1] was −6.277 and the “log2FoldChange ENSG00000271581.1 (symbol NA)” value [1] was −4.138. For the same substance, the “log2FoldChange ENSG00000271646.1 (symbol NA)” value [1] was −1.853, the “log2FoldChange ENSG00000272941.1 (symbol NA)” value [1] was −7.747 and the “log2FoldChange ERAP1 (ENSG00000164307.8)” value [1] was −2.331. The “log2FoldChange ERAP2 (ENSG00000164308.12)” value [1] was −3.931, the “log2FoldChange ETV7 (ENSG00000010030.9)” value [1] was −5.205 and the “log2FoldChange FAM110C (ENSG00000184731.5)” value [1] was −3.465. For the same substance, the “log2FoldChange FAM111A (ENSG00000166801.11)” value [1] was −2.679, the “log2FoldChange FAM186B (ENSG00000135436.4)” value [1] was −1.748 and the “log2FoldChange FAS (ENSG00000026103.15)” value [1] was −2.315.
